Experimental data: patent EP0555116B1, “Compositions based on antiseptics and their applications” (HUTCHINSON, priority 1992, dated 1993)
Where two headings read alike, the source gives them in different places.

What was measured:
spermatozoïdes = assay: Spermicidal action: vitality of spermatozoa (eosin-nigrosin, 100 spermatozoa examined); type: cell-based; settings: Homo sapiens, Sperm, solution 0,5 %, read-out: vitalité des spermatozoïdes
From the text: Les différents échantillons de sperme (une goutte de sperme/échantillon) sont obtenus à partir de volontaires sains.
Une goutte de sperme est traitée par l'éosinenigrosine. Un frottis est ensuite réalisé et cent spermatozoïdes sont examinés au microscope. Les cellules mortes sont colorées en rouge, soit totalement, soit partiellement. Les cellules vivantes sont incolores.
Les substances étudiées ont été, le Bardac® et le digluconate de chlorhexidine, testés seuls et en association conformément à l'invention. Les différentes étapes du protocole sont indiquées aux Tableaux IV à VI.
Le temps de contact maximum des différentes substances et du sperme a été limité à 3 minutes afin de garantir l'efficacité de la méthode dans les conditions d'utilisation. La concentration des solutions actives dans le sperme a été limitée à 10 % afin de diminuer les risques de toxicité des produits pour les muqueuses. TABLEAU IV

E. coli ATCC 11229 [1] = assay: Disinfection time test (Essai 2, Tables D-F), reaction at 22°, subcultures 72 h at 37°C; type: cell-based, Escherichia coli
Protocol: (§1) Un autre essai a été réalisé à partir des solutions suivantes : • 100 ml d'une solution à 0,1 % de digluconate de chlorhexidine (pH 6) et • 100 ml d'une solution à 0,1 % de Bardac 22®.
(§2) Les tests ont été réalisés conformément au protocole décrit dans le Chapitre I/2.1 et 2.2 de Richtlinien für die Prüfung und Bewertung chemischer Desinfektionsverfahren der DGHM, Stand 1.1., 1981).
Les tests dont les résultats sont illustrés aux Tableaux D, E et F ont été réalisés à une température de réaction de 22° avec une incubation des sous-cultures 72 heures à 37°C avec comme substances inactivantes : Tween® 80 3 % + saponine 3 % + cystéine 0,1 % + histidine 0,1 %; ces Tableaux illustrent respectivement l'activité bactéricide et fongicide d'une solution aqueuse à 0,1 % de digluconate de chlorhexidine, d'une solution aqueuse à 0,1 % de Bardac 22® et d'un mélange à part égale des deux composés et montrent l'action des antiseptiques précités, en fonction du temps de contact, et font apparaître la même synergie d'action de l'association que ci-dessus, dans la mesure où l'association des deux composés permet de diminuer significativement leur concentration, pour l'obtention d'un même effet. TABLEAU D

E. coli ATCC 11229 [2] = assay: Growth inhibition test (DGHM, Essai 2, Tables A-C), 72 h at 37°C; non/A/B/C = without or with inactivating substances A, B, C; type: cell-based, Escherichia coli
Protocol: as §1
L'activité de ces solutions, seules ou en combinaison a été plus particulièrement testée vis-à-vis de Staphylococcus aureus ATCC 6538, Escherichia coli ATCC 11229 et Candida albicans ATCC 10231.
as §2
Les Tableaux A, B et C illustrent respectivement l'activité bactéricide et fongicide d'une solution aqueuse à 0,1 % de digluconate de chlorhexidine, d'une solution aqueuse à 0,1 % de Bardac 22® et d'un mélange à part égale des deux composés. Les protocoles dont ces Tableaux illustrent les résultats comprennent une incubation de 72 heures à 37°C et l'utilisation, comme témoins, des substances inactivantes suivantes : A : Tween® 80 3 % + lécithine 0,3 % + cystéine 0,1 %; B : Tween® 80 3 % + saponine 3 % + cystéine 0,1 % + histidine 0,1 %; C : Tween® 80 3 % + lécithine 0,3 % + histidine 0,1 % + thiosulfate de sodium 0,5 %.
Dans ces Tableaux, le signe "+" indique une croissance et le signe "-" l'absence de croissance.

[H]/N=C(\N/C(=N/[H])NCCCCCCNC(=N)NC(=N)Nc1ccc(Cl)cc1)Nc1ccc(Cl)cc1 [Chlorhexidine, digluconate de chlorhexidine, reference compound]
viability at 0.5 % (spermatozoïdes; 1 min, 1 Min, 5 % dans le sperme): 77 ± 10.8% | viability at 0.5 % (spermatozoïdes; 1 min, 1 Min, 10 % dans le sperme): 77.2 ± 5.6% | viability at 0.5 % (spermatozoïdes; 0.05 h, 3 Min, 5 % dans le sperme): 78 ± 5.7% | viability at 0.5 % (spermatozoïdes; 0.05 h, 3 Min, 10 % dans le sperme): 75.5% | croissance (E. coli ATCC 11229 [1]; Conc. 0,1 % (vol/vol), 1 min): + | croissance (E. coli ATCC 11229 [1]; Conc. 0,1 % (vol/vol), 3 min): + | croissance (E. coli ATCC 11229 [1]; Conc. 0,1 % (vol/vol), 5 min): + | croissance (E. coli ATCC 11229 [1]; Conc. 0,1 % (vol/vol), 15 min): + | croissance (E. coli ATCC 11229 [1]; Conc. 0,1 % (vol/vol), 30 min): + | croissance (E. coli ATCC 11229 [1]; Conc. 0,1 % (vol/vol), 60 min): + | croissance (E. coli ATCC 11229 [1]; Conc. 0,05 % (vol/vol), 1 min): + | croissance (E. coli ATCC 11229 [1]; Conc. 0,5 % (vol/vol), 1 min): + | croissance (E. coli ATCC 11229 [1]; Conc. 0,05 % (vol/vol), 3 min): + | croissance (E. coli ATCC 11229 [1]; Conc. 0,5 % (vol/vol), 3 min): + | croissance (E. coli ATCC 11229 [1]; Conc. 0,05 % (vol/vol), 5 min): + | croissance (E. coli ATCC 11229 [1]; Conc. 0,5 % (vol/vol), 5 min): + | croissance (E. coli ATCC 11229 [1]; Conc. 0,05 % (vol/vol), 15 min): + | croissance (E. coli ATCC 11229 [1]; Conc. 0,5 % (vol/vol), 15 min): + | croissance (E. coli ATCC 11229 [1]; Conc. 0,05 % (vol/vol), 30 min): + | croissance (E. coli ATCC 11229 [1]; Conc. 0,5 % (vol/vol), 30 min): + | croissance (E. coli ATCC 11229 [1]; Conc. 0,05 % (vol/vol), 60 min): + | croissance (E. coli ATCC 11229 [1]; Conc. 0,5 % (vol/vol), 60 min): + | croissance (E. coli ATCC 11229 [1]; Conc. 1 % (vol/vol), 1 min): + | croissance (E. coli ATCC 11229 [1]; Conc. 1 % (vol/vol), 3 min): + | croissance (E. coli ATCC 11229 [1]; Conc. 1 % (vol/vol), 5 min): + | croissance (E. coli ATCC 11229 [1]; Conc. 1 % (vol/vol), 15 min): + | croissance (E. coli ATCC 11229 [1]; Conc. 1 % (vol/vol), 30 min): + | croissance (E. coli ATCC 11229 [1]; Conc. 1 % (vol/vol), 60 min): + | croissance (E. coli ATCC 11229 [1]; Conc. 5 % (vol/vol), 1 min): + | croissance (E. coli ATCC 11229 [1]; Conc. 5 % (vol/vol), 3 min): + | croissance (E. coli ATCC 11229 [1]; Conc. 5 % (vol/vol), 5 min): + | croissance (E. coli ATCC 11229 [1]; Conc. 5 % (vol/vol), 15 min): + | croissance (E. coli ATCC 11229 [1]; Conc. 5 % (vol/vol), 30 min): - | croissance (E. coli ATCC 11229 [1]; Conc. 5 % (vol/vol), 60 min): - | croissance (E. coli ATCC 11229 [1]; Conc. 10 % (vol/vol), 1 min): + | croissance (E. coli ATCC 11229 [1]; Conc. 10 % (vol/vol), 3 min): + | croissance (E. coli ATCC 11229 [1]; Conc. 10 % (vol/vol), 5 min): + | croissance (E. coli ATCC 11229 [1]; Conc. 10 % (vol/vol), 15 min): - | croissance (E. coli ATCC 11229 [1]; Conc. 10 % (vol/vol), 30 min): - | croissance (E. coli ATCC 11229 [1]; Conc. 10 % (vol/vol), 60 min): - | croissance (E. coli ATCC 11229 [1]; Conc. 25 % (vol/vol), 1 min): + | croissance (E. coli ATCC 11229 [1]; Conc. 25 % (vol/vol), 3 min): + | croissance (E. coli ATCC 11229 [1]; Conc. 25 % (vol/vol), 5 min): + | croissance (E. coli ATCC 11229 [1]; Conc. 25 % (vol/vol), 15 min): - | croissance (E. coli ATCC 11229 [1]; Conc. 25 % (vol/vol), 30 min): - | croissance (E. coli ATCC 11229 [1]; Conc. 25 % (vol/vol), 60 min): - | croissance (E. coli ATCC 11229 [2]; Conc. 0,1 % (vol/vol), A): + | croissance (E. coli ATCC 11229 [2]; Conc. 0,1 % (vol/vol), B): + | croissance (E. coli ATCC 11229 [2]; Conc. 0,1 % (vol/vol), C): + | croissance (E. coli ATCC 11229 [2]; Conc. 0,1 % (vol/vol), non): + | croissance (E. coli ATCC 11229 [2]; Conc. 0,05 % (vol/vol), A): + | croissance (E. coli ATCC 11229 [2]; Conc. 0,5 % (vol/vol), A): + | croissance (E. coli ATCC 11229 [2]; Conc. 0,05 % (vol/vol), B): + | croissance (E. coli ATCC 11229 [2]; Conc. 0,5 % (vol/vol), B): + | croissance (E. coli ATCC 11229 [2]; Conc. 0,05 % (vol/vol), C): + | croissance (E. coli ATCC 11229 [2]; Conc. 0,5 % (vol/vol), C): + | croissance (E. coli ATCC 11229 [2]; Conc. 0,05 % (vol/vol), non): + | croissance (E. coli ATCC 11229 [2]; Conc. 0,5 % (vol/vol), non): - | croissance (E. coli ATCC 11229 [2]; Conc. 1,0 % (vol/vol), A): + | croissance (E. coli ATCC 11229 [2]; Conc. 1,0 % (vol/vol), B): + | croissance (E. coli ATCC 11229 [2]; Conc. 1,0 % (vol/vol), C): + | croissance (E. coli ATCC 11229 [2]; Conc. 1,0 % (vol/vol), non): - | croissance (E. coli ATCC 11229 [2]; Conc. 0,00625 % (vol/vol), A): + | croissance (E. coli ATCC 11229 [2]; Conc. 0,00625 % (vol/vol), B): + | croissance (E. coli ATCC 11229 [2]; Conc. 0,00625 % (vol/vol), C): + | croissance (E. coli ATCC 11229 [2]; Conc. 0,00625 % (vol/vol), non): + | croissance (E. coli ATCC 11229 [2]; Conc. 0,0125 % (vol/vol), A): + | croissance (E. coli ATCC 11229 [2]; Conc. 0,0125 % (vol/vol), B): + | croissance (E. coli ATCC 11229 [2]; Conc. 0,0125 % (vol/vol), C): + | croissance (E. coli ATCC 11229 [2]; Conc. 0,0125 % (vol/vol), non): + | croissance (E. coli ATCC 11229 [2]; Conc. 0,025 % (vol/vol), A): + | croissance (E. coli ATCC 11229 [2]; Conc. 0,025 % (vol/vol), B): + | croissance (E. coli ATCC 11229 [2]; Conc. 0,025 % (vol/vol), C): + | croissance (E. coli ATCC 11229 [2]; Conc. 0,025 % (vol/vol), non): + | concentration en substance active inhibant la croissance (E. coli ATCC 11229 [2]; antiseptique seul): 0,0005%
